Experimental data: patent US9493485B2, “Spirocyclic dihydro-thiazine and dihydro-oxazine BACE inhibitors, and compositions and uses thereof” (Imago Pharmaceuticals, Inc., priority 2012, dated 2016)
Like-named read-outs stand apart in the source and are kept apart here.

Legend:
BACE1 [1] = target: T1, BACE1 (Homo sapiens (Human), UniProt P56817); assay: BACE1 AlphaScreen assay (displacement of biotinylated BACE1 binding site probe); details: read-out: BACE1 AS IC50
[2] = tested on: BACE1 inhibition in HEKp293 cells transfected with APP751 gene (SWE293); assay: SWE293 cellular assay: reduction of Aβ peptide production, ELISA; assay type: cell-based; details: Homo sapiens, read-out: SWE293 ED50
Summary of the method: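 SWE293 cells (HEK293 carrying APP751), plated overnight at 37 °C, received 1:3 serially diluted compound for two successive 2 h exposures with washes between. Medium Aβ was captured on 266-antibody plates, detected with 3D6 antibody and streptavidin-AP fluorescent substrate, and quantified against an Aβ-40 standard curve.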

Cathepsin D = Cathepsin D (Homo sapiens (Human), UniProt P07339); assay: Cathepsin D FP assay; assay type: biochemical; details: pH 4.5, read-out: CatD FP IC50
Summary of the method: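 AlphaScreen (PBS, 0.01% Tween-20, 0.05% BSA, pH 7.0): compound preincubated 15 min with BACE1 ([…]), then biotinylated binding-site probe 1 h, beads 2 h; IC50 from signal. FP (100 mM sodium acetate, pH 4.5, 0.001% Tween-20): added BACE1 (0.3 nM) or cathepsin D (1.8 nM), 30 min RT.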

BACE1 [3] = target: T1, BACE1; assay: BACE1 FP assay; assay type: biochemical; details: pH 4.5
[4] = dose at which Aβ level is reduced by 50%, HEKp293 SWE293 cells

T1 sequence (P56817 46-501): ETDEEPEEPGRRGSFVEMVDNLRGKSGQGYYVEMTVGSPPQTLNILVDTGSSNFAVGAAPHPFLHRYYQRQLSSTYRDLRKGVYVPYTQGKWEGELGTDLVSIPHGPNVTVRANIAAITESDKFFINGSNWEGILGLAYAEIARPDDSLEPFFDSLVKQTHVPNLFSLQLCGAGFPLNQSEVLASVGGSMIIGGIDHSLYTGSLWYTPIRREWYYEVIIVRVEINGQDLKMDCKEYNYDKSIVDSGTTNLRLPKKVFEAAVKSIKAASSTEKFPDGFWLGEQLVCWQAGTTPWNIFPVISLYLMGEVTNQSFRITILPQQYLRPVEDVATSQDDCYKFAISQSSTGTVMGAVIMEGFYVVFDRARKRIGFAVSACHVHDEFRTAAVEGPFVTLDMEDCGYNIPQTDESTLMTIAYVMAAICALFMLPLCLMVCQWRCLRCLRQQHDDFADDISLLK
Sequence of Cathepsin D (P07339 65-412, species assumed): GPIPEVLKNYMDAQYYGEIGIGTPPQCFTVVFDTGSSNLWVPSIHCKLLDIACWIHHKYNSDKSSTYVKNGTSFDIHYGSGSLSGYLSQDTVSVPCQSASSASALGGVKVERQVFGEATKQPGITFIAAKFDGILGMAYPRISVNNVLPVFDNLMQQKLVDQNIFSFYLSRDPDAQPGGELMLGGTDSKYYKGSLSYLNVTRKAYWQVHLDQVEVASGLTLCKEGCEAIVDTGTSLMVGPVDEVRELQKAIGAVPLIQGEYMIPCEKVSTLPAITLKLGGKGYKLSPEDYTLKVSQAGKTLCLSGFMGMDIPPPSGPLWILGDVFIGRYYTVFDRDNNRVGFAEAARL

| IC50 (BACE1 [1]) | IC50 (Cathepsin D) | IC50 (BACE1 [3]) | Structure (SMILES) | IC50 [2, 4] | IC50 [2] |
| --- | --- | --- | --- | --- | --- |
| 0.0068 µM | > 30 µM | 0.029 µM | C[C@@]1(c2cc(NC(=O)c3ccc(F)cn3)ccc2F)CC2(CCOCC2)SC(N)=N1 [Compound 9-148, (S)—N-(3-(2-amino-4-methyl-9-oxa-1-thia-3-azaspiro[5.5]undec-2-en-4-yl)-4-fluorophenyl)-5-fluoropicolinamide] | 0.0014 µM |  |
| 0.009 µM | 10.6 µM | 0.004 µM | CC1(c2cc(NC(=O)c3ccc(Cl)cn3)ccc2F)CC2(CCOCC2)SC(N)=N1 (centres unmarked) [Compound 9-150, N-(3-(2-amino-4-methyl-9-oxa-1-thia-3-azaspiro[5.5]undec-2-en-4-yl)-4-fluorophenyl)-5-chloropicolinamide] | < 0.004 µM |  |
| 0.0097 µM | > 30 µM | 0.005 µM | C[C@@]1(c2cc(NC(=O)c3ccc(Cl)cn3)ccc2F)CC2(CCOCC2)SC(N)=N1 [Compound 9-151, (S)—N-(3-(2-amino-4-methyl-9-oxa-1-thia-3-azaspiro[5.5]undec-2-en-4-yl)-4-fluorophenyl)-5-chloropicolinamide] | 0.0004 µM |  |
| 0.0075 µM | > 30 µM | 0.113 µM | C[C@@]1(c2cc(NC(=O)c3ccc(Cl)cn3)ccc2F)CC2(CC2)OC(N)=N1 [Compound 9-154, (S)—N-(3-(5-amino-7-methyl-4-oxa-6-azaspiro[2.5]oct-5-en-7-yl)-4-fluorophenyl)-5-chloropicolinamide] | 0.02 µM |  |
| 0.015 µM | 19.6 µM | 0.094 µM | CC1(c2cc(NC(=O)c3ccc(Cl)cn3)ccc2F)N=C(N)OC2(CCOCC2)C1(F)F (centres unmarked) [Compound 9-158, N-(3-(2-amino-5,5-difluoro-4-methyl-1,9-dioxa-3-azaspiro[5.5]undec-2-en-4-yl)-4-fluorophenyl)-5-chloropicolinamide] | 0.182 µM |  |
| 0.0195 µM | > 30 µM | 0.066 µM | CC1(c2cc(NC(=O)c3ccc(Cl)cn3)ccc2F)N=C(N)OC2(CCC2)C1(F)F (centres unmarked) [Compound 9-160, N-(3-(6-amino-9,9-difluoro-8-methyl-5-oxa-7-azaspiro[3.5]non-6-en-8-yl)-4-fluorophenyl)-5-chloropicolinamide] | 0.268 µM |  |

| Structure (SMILES) | IC50 (BACE1 [1]) | IC50 (Cathepsin D) | IC50 (BACE1 [3]) | IC50 [2, 4] | IC50 [2] |
| --- | --- | --- | --- | --- | --- |
| CC1(c2cc(NC(=O)c3ccc(F)cn3)ccc2F)N=C(N)OC2(CCOCC2)C1(F)F (centres unmarked) [Compound 9-155, N-(3-(2-amino-5,5-difluoro-4-methyl-1,9-dioxa-3-azaspiro[5.5]undec-2-en-4-yl)-4-fluorophenyl)-5-fluoropicolinamide] | 0.031 µM | > 30 µM | 0.277 µM | 0.177 µM |  |
| C[C@]1(c2cc(NC(=O)c3ccc(F)cn3)ccc2F)N=C(N)OC2(CCOCC2)C1(F)F [Compound 9-157, (R)—N-(3-(2-amino-5,5-difluoro-4-methyl-1,9-dioxa-3-azaspiro[5.5]undec-2-en-4-yl)-4-fluorophenyl)-5-fluoropicolinamide] | 0.045 µM | > 30 µM | 0.3 µM | 0.166 µM |  |
| CC1(c2cc(NC(=O)c3ccc(F)cn3)ccc2F)N=C(N)OC2(CCC2)C1(F)F (centres unmarked) [Compound 9-159, N-(3-(6-amino-9,9-difluoro-8-methyl-5-oxa-7-azaspiro[3.5]non-6-en-8-yl)-4-fluorophenyl)-5-fluoropicolinamide] | 0.04 µM | > 30 µM | 0.21 µM |  | 0.225 µM |
| CC1(c2cc(NC(=O)c3ccc(C#N)cn3)ccc2F)N=C(N)OC2(CCC2)C1(F)F (centres unmarked) [Compound 9-161, N-(3-(6-amino-9,9-difluoro-8-methyl-5-oxa-7-azaspiro[3.5]non-6-en-8-yl)-4-fluorophenyl)-5-cyanopicolinamide] | 0.0135 µM | > 30 µM | 0.066 µM | 0.038 µM |  |
| C[C@]1(c2cc(NC(=O)c3ccc(C#N)cn3)ccc2F)N=C(N)OC2(CCC2)C1(F)F [Compound 9-162, (R)—N-(3-(6-amino-9,9-difluoro-8-methyl-5-oxa-7-azaspiro[3.5]non-6-en-8-yl)-4-fluorophenyl)-5-cyanopicolinamide] | 0.015 µM | > 30 µM | 0.04 µM | 0.039 µM |  |
